Experimental data from US7462464B1, “Method for the detection of antimicrobial residues in food and bodily fluid samples” (priority 1999, dated 2008).

Tests used:
Format in all cases: cell-based
[1] = tested on: Bacillus stearothermophilus; assay: Premi Test microbial inhibition test, spiked chicken meat juice with thickening agent
Method: (§1) The samples were then examined using microbial inhibition test ampoules produced according to the methods described in EP 0005891 with the nutrients present in the agar. The said test is also known as Premi®Test (commercially available from DSM N.V., Delft, The Netherlands).
Fresh chicken breast meat of a negative chicken was obtained from a slaughterhouse (negative in the sense of the presence of antibiotics). To obtain meat fluid for further testing pieces of meat were heated for 10 minutes at 64° C. and gently sqeezed using a garlic press. Spiked samples were prepared by adding Amoxicillin (0, 5 and 10 ppb), Oxytetracycline (0, 75 and 100 ppb) or Sulphadiazine (0, 75 and 100 ppb) to the meat juice.
To a part of said samples the thickening agent methylcellulose (4000 c.p.i., Sigma) was added to a final concentration of 1.5%.
100 μl of each sample was added to the Premi®Test ampoules (in duplicate) following the procedure described in Example 1. However, since a thickening agent was added, the pre-incubation step was not required anymore. Also the heating of the samples for 10 minutes at 80° C. was not required for this specific sample.
In addition a similar experiment was executed. However, now samples containing 10 ppb of Amoxycillin or 200 ppb of Oxytetracycline were prepared and the thickening agent bovine albumine (Sigma) was added to a final concentration of 6%.

[2] = tested on: Bacillus stearothermophilus; assay: Premi Test microbial inhibition test, spiked bovine kidney pre-urine; details: part of sample with methylcellulose 1.5%, controls yellow after 185 minutes
Source text: Fresh kidneys of 7 negative (negative in the sense of the presence of antibiotics) cows were obtained from a slaughterhouse. To obtain samples for testing for the presence or absence of antimicrobial drug residues, the rosettes of the kidneys were divided into pieces. The pieces were gently squeezed using a garlic press to obtain pre-urine.
as §1
100 μl of each of the 7 squeezed samples (pre-urine) was added to the test ampoules and heated for 10 minutes at 80° C. in a waterbath, the ampoules were immediately placed in a waterbath of 64° C. and incubated following the instructions of the manufacturer.
The experiment was executed as described in Example 1. However now to a part of the pre-urine sample the thickening agent methylcellulose (4000 c.p.i., Sigma) was added to a final concentration of 1.5%. Also spiked samples were prepared following the method described in Example 6.

[3] = tested on: Bacillus stearothermophilus; assay: Delvotest microbial inhibition test, spiked egg samples; details: heated 10 minutes at 80° C., incubated at 64° C., read after 140 minutes
Method: A hole of approximately 1-2 cm2 was made in the egg, the egg yolk was pricked and the egg was placed with the hole down on a bottle allowing the egg white and egg yolk to drip into the bottle. After the egg had emptied, the bottle was closed and the sample was homogenized by shaking. To inactivate the natural inhibiting compounds present in the egg sample, 100 μl of each of the 5 samples was added on Delvotest® ampoules. The test was produced according to the methods described in EP 0005891 with the nutrients present in the agar. After heating for 10 minutes at 80° C. in a waterbath, the ampoules were immediately placed in a waterbath at 64° C. and incubated following the instructions of the producer. […] Egg samples were obtained according to the method described in Example 3. The samples were spiked by adding Penicillin G (0 and 4 ppb) or Sulphadiazine (0 and 100 ppb). The egg samples were added to Delvotest® ampoules (see Example 3) according to the method described in this invention: heated for 10 minutes at 80° C., and then, immediately placed in a waterbath at 64° C. and incubated following the instructions of the manufacturer.

[4] = tested on: Bacillus stearothermophilus; assay: Microbial inhibition test ampoules (EP 0005891), spiked raw milk; details: with or without bovine albumine 6% or heating 10 minutes at 80° C., controls yellow after 160-185 minutes
Method: Raw milk samples of negative cows were obtained from a farmer (negative in the sense of the presence of antibiotics). Spiked samples were prepared by adding Penicillin G to the milk (0, 4 and 6 ppb). To a part of said samples the thickening agent bovine albumine (Sigma) was added to a final concentration of 6%. The samples were then examined using microbial inhibition test ampoules produced according to the method described in EP 0005891 with the nutrients in the agar. 100 μl of milk was added to the test ampoules. A part of the test ampoules with the raw milk sample was heated for 10 minutes at 80° C. as described in Example 1. All experiments were executed in five fold. The tests were further incubated following the methods described in Example 1.

CC1(C)S[C@@H]2[C@H](NC(=O)[C@H](N)c3ccc(O)cc3)C(=O)N2[C@H]1C(=O)O [Amoxicillin]
test colour / result (purple = positive) ([1]; chicken meat juice spiked with 5 ppb, part of samples with methylcellulose 1.5%, after 160 minutes): remained purple (positive)
test colour / result (purple = positive) ([1]; chicken meat juice spiked with 10 ppb, bovine albumine 6%, after 165 minutes): remained purple
test colour / result (purple = positive) ([1]; chicken meat juice spiked with 10 ppb, part of samples with methylcellulose 1.5%, after 160 minutes): remained purple (positive)
test colour / result (purple = positive) ([2]; pre-urine spiked with 5 ppb): remained purple (positive)
test colour / result (purple = positive) ([2]; pre-urine spiked with 10 ppb): remained purple (positive)

CC1(C)S[C@@H]2[C@H](NC(=O)Cc3ccccc3)C(=O)N2[C@H]1C(=O)O [Penicillin G]
test colour / result (purple = positive, growth of test organism inhibited) ([3]; egg sample spiked with 4 ppb): remained purple (positive)
test colour / result (purple = positive) ([4]; raw milk spiked with 4 ppb): remained purple (positive)
test colour / result (purple = positive) ([4]; raw milk spiked with 6 ppb): remained purple (positive)

Nc1ccc(S(=O)(=O)Nc2ncccn2)cc1 [Sulphadiazine]
test colour / result (purple = positive, growth of test organism inhibited) ([3]; egg sample spiked with 100 ppb): remained purple (positive)
test colour / result (purple = positive) ([1]; chicken meat juice spiked with 75 ppb, part of samples with methylcellulose 1.5%, after 160 minutes): remained purple (positive)
test colour / result (purple = positive) ([1]; chicken meat juice spiked with 100 ppb, part of samples with methylcellulose 1.5%, after 160 minutes): remained purple (positive)
test colour / result (purple = positive) ([2]; pre-urine spiked with 75 ppb): remained purple (positive)
test colour / result (purple = positive) ([2]; pre-urine spiked with 100 ppb): remained purple (positive)
